Some test systems named below: 786-0; CCRF-CEM; DU-145; EKVX; HL-60; HT-29; IGROV-1; MDA-MB-231; NCI-H226; NCI-H23; NCI-H522; OVCAR-8; SF-268; SK-MEL-28; T47D; UACC-257; UO-31; ACHN; MDA-N; SF-539.
What all share (test): NCI tumour cell line growth inhibition, 48 h

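Briefly, cells in 96-well plates were exposed to five compound concentrations for 48 h, and endpoints were estimated by linear interpolation. At the GI50, growth is halved.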 Active and inactive are the calls of the source. Cut-off read from the data, not from the text of the source: active = GI50 up to about 1.1 µM and inactive = higher.

Take `CC(C)=NN/C(=N\c1ccc(Cl)cc1)NS(=O)(=O)c1cc2ccccc2s1`: the GI50 is > 100 µM (inactive) in the experiment on 786-0; 40.4 µM (inactive) with CCRF-CEM; > 100 µM (inactive) with DU-145; 12 µM (inactive) in the experiment on EKVX; 29.2 µM (inactive) in the experiment on HL-60; 63.1 µM (inactive) with HT-29. In addition, the GI50 is 34.2 µM (inactive) with IGROV-1; > 100 µM (inactive) in the experiment on MDA-MB-231; > 100 µM (inactive) in the experiment on NCI-H226; 76 µM (inactive) with NCI-H23; 38.5 µM (inactive) in the experiment on NCI-H522; > 100 µM (inactive) in the experiment on OVCAR-8. Also, the GI50 in the experiment with SF-268 was 76.7 µM (inactive); in the experiment on SK-MEL-28, > 100 µM (inactive); with T47D it was 21.5 µM (inactive); with UACC-257 it was 55.3 µM (inactive); in the experiment with UO-31 it was 30.5 µM (inactive).
Regarding `Nc1cc(N2CCOCC2)nc(=O)n1-c1ccc(Cl)cc1`, the GI50 was > 100 µM (inactive) in the experiment with 786-0; > 100 µM (inactive) with ACHN; > 100 µM (inactive) in the experiment on CCRF-CEM; > 100 µM (inactive) in the experiment with DU-145; > 100 µM (inactive) with EKVX; 8.38 µM (inactive) in the experiment with HL-60. Besides, the GI50 with HT-29, in the experiment on IGROV-1, in the experiment on MDA-N, with NCI-H226, in the experiment on NCI-H23 and with OVCAR-8 was > 100 µM (inactive) in each case. The GI50 with SF-539, in the experiment on SK-MEL-28, in the experiment with T47D, in the experiment with UACC-257 and in the experiment with UO-31 was > 100 µM (inactive) each time.
With `CCOC(=O)C1(C(=O)OCC)C[C@H](C)[C@](C)(O)C1`, the GI50 in the experiment with 786-0 is > 100 µM (inactive); in the experiment with ACHN it was > 100 µM (inactive); in the experiment with CCRF-CEM it was > 100 µM (inactive); in the experiment with DU-145, > 100 µM (inactive); with EKVX, > 100 µM (inactive); with HL-60, 37.8 µM (inactive). The GI50 in the experiment with HT-29, in the experiment with IGROV-1, in the experiment with MDA-MB-231, with MDA-N, in the experiment with NCI-H226 and in the experiment with NCI-H23 was > 100 µM (inactive) in each case. Further, the GI50 in the experiment with NCI-H522, in the experiment with OVCAR-8, with SF-268, in the experiment with SF-539, in the experiment with SK-MEL-28 and in the experiment on UACC-257 was > 100 µM (inactive) in each case. For the same compound, the GI50 in the experiment on UO-31 was > 100 µM (inactive).
In the case of `O=C(O)C1Cc2ccccc2OC1=O` (configuration not stated), the GI50 in the experiment on 786-0, in the experiment with ACHN, with DU-145, in the experiment on EKVX, in the experiment on HT-29 and in the experiment with IGROV-1 was > 100 µM (inactive) each time. For the same compound, the GI50 in the experiment on MDA-MB-231 is > 100 µM (inactive); in the experiment with NCI-H226, > 100 µM (inactive); in the experiment on NCI-H23, 8.69 µM (inactive); in the experiment on NCI-H522, > 100 µM (inactive); with OVCAR-8 it was > 100 µM (inactive); in the experiment with SF-268, > 100 µM (inactive). The GI50 in the experiment with SF-539, in the experiment on SK-MEL-28, in the experiment with T47D, in the experiment on UACC-257 and in the experiment on UO-31 was > 100 µM (inactive) throughout.
`CC(C)CC(Nc1c(O)ccc2ccccc12)C(=O)O` (configuration not stated): the GI50 was 59.3 µM (inactive) in the experiment with 786-0; 22.9 µM (inactive) with ACHN; 0.959 µM (active) in the experiment on CCRF-CEM; 19.2 µM (inactive) with DU-145; 17.3 µM (inactive) with EKVX; 34.2 µM (inactive) in the experiment with HL-60. Further, the GI50 with HT-29 was 81.8 µM (inactive); in the experiment on IGROV-1, 32.7 µM (inactive); in the experiment with MDA-MB-231, 25.4 µM (inactive); with NCI-H226, 20 µM (inactive); in the experiment on NCI-H23, 19.5 µM (inactive); with NCI-H522, 26.3 µM (inactive). Besides, the GI50 in the experiment with SF-268 was 24.7 µM (inactive); in the experiment with SF-539, 16.7 µM (inactive); with SK-MEL-28, 45.9 µM (inactive); with T47D it was 64.7 µM (inactive); in the experiment with UACC-257, 20.5 µM (inactive); in the experiment with UO-31 it was 27.6 µM (inactive).
As for `Cc1ccc(-c2nc3n(c2/C=N\N=C(N)N)CCS3)cc1`, the GI50 in the experiment with 786-0 is 15.8 µM (inactive); with ACHN, 15 µM (inactive); in the experiment on CCRF-CEM, 22.1 µM (inactive); in the experiment with DU-145, 13.8 µM (inactive); in the experiment with EKVX, 16 µM (inactive); with HL-60 it was 33.3 µM (inactive). In addition, the GI50 with HT-29 is 14 µM (inactive); in the experiment with IGROV-1, 15 µM (inactive); in the experiment on MDA-MB-231, 16.3 µM (inactive); with NCI-H23, 15.8 µM (inactive); in the experiment on NCI-H522 it was 2.79 µM (inactive); in the experiment on OVCAR-8 it was 15.6 µM (inactive). Besides, the GI50 in the experiment on SF-268 was 14.9 µM (inactive); in the experiment with SF-539 it was 15.2 µM (inactive); in the experiment on SK-MEL-28 it was 15.7 µM (inactive); with T47D it was 13.2 µM (inactive); with UACC-257, 16.6 µM (inactive); in the experiment with UO-31 it was 16.7 µM (inactive).
Turning to `O=C1/C(=N\NC(=S)Nc2ccc(Cl)cc2)c2cc([N+](=O)[O-])ccc2N1CN1CCOCC1`, the GI50 in the experiment on 786-0 is 4.41 µM (inactive); with ACHN, 4.73 µM (inactive); in the experiment on CCRF-CEM it was 2.85 µM (inactive); in the experiment with DU-145 it was 10.5 µM (inactive); in the experiment on HL-60 it was 0.502 µM (active); with IGROV-1, 4.19 µM (inactive). The GI50 with MDA-MB-231 was 15 µM (inactive); in the experiment with NCI-H226, 4.81 µM (inactive); in the experiment with NCI-H23, 2.08 µM (inactive); in the experiment on NCI-H522 it was 6.79 µM (inactive); in the experiment with OVCAR-8, 5.6 µM (inactive); with SF-268 it was 4.39 µM (inactive). Besides, the GI50 in the experiment with SF-539 is 11.3 µM (inactive); with SK-MEL-28, 10.9 µM (inactive); in the experiment with T47D, 4.37 µM (inactive); in the experiment on UACC-257, 13.2 µM (inactive); in the experiment with UO-31, 3.78 µM (inactive).
Turning to `Cc1ccc(/C=C2\CCCc3ccccc3C2=O)cc1`, the GI50 is 18 µM (inactive) in the experiment with 786-0; 31.8 µM (inactive) in the experiment on ACHN; 15.1 µM (inactive) in the experiment with CCRF-CEM; 22.2 µM (inactive) with DU-145; 12 µM (inactive) in the experiment with EKVX; 11.2 µM (inactive) in the experiment on HL-60. In addition, the GI50 with HT-29 was 3.18 µM (inactive); in the experiment with IGROV-1, 7.14 µM (inactive); in the experiment with MDA-MB-231, 9.62 µM (inactive); with MDA-N it was 1.86 µM (inactive); in the experiment with NCI-H226 it was 6.46 µM (inactive); with NCI-H23, 9.2 µM (inactive). Also, the GI50 in the experiment with NCI-H522 was 6.25 µM (inactive); in the experiment with OVCAR-8 it was 22.4 µM (inactive); with SF-268 it was 11.2 µM (inactive); in the experiment on SF-539, 13.8 µM (inactive); with SK-MEL-28, 22.4 µM (inactive); in the experiment with UACC-257 it was 21.9 µM (inactive). Besides, the GI50 with UO-31 was 29.6 µM (inactive).

The record behind these values is ChEMBL document CHEMBL1201862, “PubChem BioAssay data set” (2004).
